Test results as given in patent US9839642B2, “Beta-tetrazolyl-propionic acids as metallo-beta-lactamase inhibitors” (priority 2014, dated 2017).
Where two headings read alike, the source gives them in different places.

Columns and labels:
VIM-1 = VIM-1 (Pseudomonas aeruginosa, UniProt A0A0F7KYQ8); assay: Enzyme activity: determination of IC50, fluorescence assay with CCF2-FA substrate; assay type: biochemical; details: enzyme 30 pM, CCF2-FA 1.25 μM, 2 hours at 25° C.; read-out: VIM1 IC50
Summary of the method: (§1)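 100 mM KH2PO4 pH 7 + 0.005% Tween-20 + 10 μM ZnSO4; CCF2-FA 1.25 μM; NDM-1 1 pM, IMP-1 2 pM, VIM-1 30 pM; cpd 20–0.00063 μM final, DMSO 1:50. 2 h, 25° C. Ex 405/em 460 nm; IC50, 4-param fit.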

IMP-1 = IMP-1 (Serratia marcescens, UniProt P52699); assay: as above; assay type: biochemical; details: enzyme 2 pM, CCF2-FA 1.25 μM, 2 hours at 25° C.; read-out: IMP1 IC50
Summary of the method: as §1

NDM-1 = NDM-1 (Klebsiella pneumoniae, UniProt C7C422); assay: as above; assay type: biochemical; details: CCF2-FA 1.25 μM, 2 hours at 25° C.
Summary of the method: as §1

[1] = test system: Klebsiella pneumoniae expressing VIM-1 (IHMA599644); assay: Antibiotic potentiation activity: synergistic concentration (MITC95) with imipenem, growth by OD600; assay type: cell-based; details: 95% inhibition of bacterial growth, strain IHMA599644
Summary of the method: (§2)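 MITC95 = lowest inhibitor concentration giving 95% growth inhibition, read by absorbance after 22–24 h at 35° C. Compound range 200 μM to 0.195 μM, imipenem fixed at 1 or 4 μg/ml, bacteria in 1.1×CAMHB from saline suspension diluted 1:100.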

[2] = test system: Escherichia coli expressing NDM-1 (CLB30016); assay: as above; assay type: cell-based; details: 95% inhibition of bacterial growth, strain CLB30016
Summary of the method: as §2

[3] = test system: Serratia marcescens expressing IMP-1 (CL5741); assay: as above; assay type: cell-based; details: 95% inhibition of bacterial growth, strain CL5741
Summary of the method: as §2

[4] = enzyme 1 pM, read-out: NDM1 IC50

Sequence of NDM-1 (C7C422 29-270, looked up, species assumed): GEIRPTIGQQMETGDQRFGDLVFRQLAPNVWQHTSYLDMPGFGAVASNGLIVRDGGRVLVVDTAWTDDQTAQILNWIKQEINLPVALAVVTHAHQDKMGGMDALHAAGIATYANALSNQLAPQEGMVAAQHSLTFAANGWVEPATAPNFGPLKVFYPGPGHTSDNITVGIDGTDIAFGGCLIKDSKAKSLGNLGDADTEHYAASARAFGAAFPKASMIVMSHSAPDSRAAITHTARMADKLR
Sequence of IMP-1 (P52699 19-246, looked up, species assumed): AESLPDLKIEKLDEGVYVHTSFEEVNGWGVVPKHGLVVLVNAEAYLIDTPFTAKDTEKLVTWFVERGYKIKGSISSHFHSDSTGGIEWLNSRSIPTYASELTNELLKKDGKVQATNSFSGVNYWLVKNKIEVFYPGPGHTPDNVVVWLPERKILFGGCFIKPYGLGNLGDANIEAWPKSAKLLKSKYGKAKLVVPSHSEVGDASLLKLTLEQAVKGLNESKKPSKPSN

| Structure (SMILES) | IC50 (VIM-1) | IC50 (IMP-1) | IC50 (NDM-1; [4]) | VIM1 KP599644 MITC95 [1] | NDM1 EC30016 MITC95 [2] | IMP1 SM5741 MITC95 [3] | IC50 (NDM-1; NDM1 IC50, enzyme 1 pM) |
| --- | --- | --- | --- | --- | --- | --- | --- |
| CCC[C@H](C(=O)O)[C@H](Cc1cccc2sc(N)nc12)c1nn[nH]n1 [Example 155, (S)-2-((S)-2-(2-aminobenzo[d]thiazol-4-yl)-1-(2H-tetrazol-5-yl)ethyl)pentanoic acid] | 7.3 nM | 290 nM | 12 nM | 18.8 µM | 16 µM | 18.8 µM | – |
| CCC[C@H](C(=O)O)[C@H](Cc1cnn2ncccc12)c1nnn[nH]1 [Example 156, (S)-2-((S)-2-(pyrazolo[1,5-b]pyridazin-3-yl)-1-(1H-tetrazol-5-yl)ethyl)pentanoic acid] | 1.5 nM | 5400 nM | 150 nM | 25 µM | 31 µM | >200 µM | – |
| CCC[C@H](C(=O)O)[C@H](Cc1ccc(O)nc1)c1nnn[nH]1 [Example 157, (S)-2-((S)-2-(6-hydroxypyridin-3-yl)-1-(1H-tetrazol-5-yl)ethyl)pentanoic acid] | 8.5 nM | 12000 nM | 730 nM | 25 µM | 18.8 µM | >200 µM | – |
| CCC[C@H](C(=O)O)[C@H](Cc1ccc(-c2ccc(C3(O)CNC3)cc2)nc1)c1nnn[nH]1 [Example 159, (2S)-2-[(1S)-2-{6-[4-(3-hydroxyazetidin-3-yl)phenyl]pyridin-3-yl}-1-(1H-tetrazol-5-yl)ethyl]pentanoic acid] | 23 nM | 3700 nM | 400 nM | 50 µM | 12.5 µM | 75 µM | – |
| CCC[C@H](C(=O)O)[C@H](Cc1ccc(-c2cnc(NC(C)=O)nc2)nc1)c1nn[nH]n1 [Example 160, (2S)-2-[(1S)-2-{6-[2-(acetylamino)pyrimidin-5-yl]pyridin-3-yl}-1-(1H-tetrazol-5-yl)ethyl]pentanoic acid] | 5.7 nM | 1600 nM | 50 nM | 75 µM | 38 µM | 50 µM | – |
| CCC[C@H](C(=O)O)[C@H](Cc1ccc(-c2cnc(N)nc2)nc1)c1nnn[nH]1 [Example 161, (2S)-2-[(1S)-2-[6-(2-aminopyrimidin-5-yl)pyridin-3-yl]-1-(1H-tetrazol-5-yl)ethyl]pentanoic acid] | 3.3 nM | 1100 nM | 30 nM | 50 µM | 18.8 µM | 18.8 µM | – |
| CCC[C@H](C(=O)O)[C@H](Cc1ccc(-c2ccc3ccnc(C#N)c3c2)nc1)c1nnn[nH]1 [Example 162, (2S)-2-[(1S)-2-[6-(1-cyanoisoquinolin-7-yl)pyridin-3-yl]-1-(1H-tetrazol-5-yl)ethyl]pentanoic acid] | 3.7 nM | 560 nM | 22 nM | 125 µM | 75 µM | 12.5 µM | – |
| CCC[C@H](C(=O)O)[C@H](Cc1ccc(-c2cnc(N(C)C)nc2)nc1)c1nnn[nH]1 [Example 163, (2S)-2-[(1S)-2-{6-[2-(dimethylamino)pyrimidin-5-yl]pyridin-3-yl}-1-(1H-tetrazol-5-yl)ethyl]pentanoic acid] | 3.8 nM | 600 nM | 25 nM | 125 µM | 38 µM | 16 µM | – |
| CCC[C@H](C(=O)O)[C@H](Cc1ccc(C2=CCNC2)nc1)c1nnn[nH]1 [Example 164, (2S)-2-[(1S)-2-[6-(2,5-dihydro-1H-pyrrol-3-yl)pyridin-3-yl]-1-(1H-tetrazol-5-yl)ethyl]pentanoic acid] | 3.9 nM | 13000 nM | 530 nM | 18.8 µM | 9.4 µM | 50 µM | – |
| CCC[C@H](C(=O)O)[C@H](Cc1ccc(C2=CCNCC2)cn1)c1nnn[nH]1 [Example 165, (2S)-2-[(1S)-2-(1′,2′,3′,6′-tetrahydro-3,4′-bipyridin-6-yl)-1-(1H-tetrazol-5-yl)ethyl]pentanoic acid] | 68 nM | > 20000 nM | – | 25 µM | 3.1 µM | 150 µM | 1500 nM |
| CCC[C@H](C(=O)O)[C@H](Cc1ccc(-c2ccc(C3(O)CNC3)cc2)cn1)c1nnn[nH]1 [Example 166, (2S)-2-[(1S)-2-{5-[4-(3-hydroxyazetidin-3-yl)phenyl]pyridin-2-yl}-1-(1H-tetrazol-5-yl)ethyl]pentanoic acid] | 170 nM | 9300 nM | 500 nM | 38 µM | 9.4 µM | 100 µM | – |
| CCC[C@H](C(=O)O)[C@H](Cc1ccc(-c2ccc(N)nc2)cn1)c1nnn[nH]1 [Example 167, (2S)-2-[(1S)-2-(6′-amino-3,3′-bipyridin-6-yl)-1-(1H-tetrazol-5-yl)ethyl]pentanoic acid] | 140 nM | 5700 nM | 200 nM | 100 µM | 9.4 µM | >200 µM | – |
| CCC[C@H](C(=O)O)[C@H](Cc1ccc(-c2ccc3[nH]ncc3c2)cn1)c1nnn[nH]1 [Example 168, (2S)-2-[(1S)-2-[5-(1H-indazol-5-yl)pyridin-2-yl]-1-(1H-tetrazol-5-yl)ethyl]pentanoic acid] | 53 nM | 3000 nM | 100 nM | >200 µM | 25 µM | 200 µM | – |
| CCC[C@H](C(=O)O)[C@H](Cc1ccc(-c2ccc3c(c2)OCC(=O)N3)cn1)c1nnn[nH]1 [Example 169, (2S)-2-[(1S)-2-[5-(3-oxo-3,4-dihydro-2H-1,4-benzoxazin-7-yl)pyridin-2-yl]-1-(1H-tetrazol-5-yl)ethyl]pentanoic acid] | 38 nM | 1600 nM | 88 nM | 200 µM | 18.8 µM | 100 µM | – |
| CC(C)C[C@H](C(=O)O)[C@H](Cc1ccc(C2=CCNCC2)cn1)c1nn[nH]n1 [Example 170, (2S)-4-methyl-2-[(1S)-2-(1′,2′,3′,6′-tetrahydro-3,4′-bipyridin-6-yl)-1-(2H-tetrazol-5-yl)ethyl]pentanoic acid] | 22 nM | 3600 nM | – | 12.5 µM | 1.6 µM | 50 µM | 250 nM |
| CC(C)C[C@H](C(=O)O)[C@H](Cc1ccc(-c2ccc(CO)cc2)cn1)c1nn[nH]n1 [Example 171, (2S)-2-[(1S)-2-{5-[4-(hydroxymethyl)phenyl]pyridin-2-yl}-1-(2H-tetrazol-5-yl)ethyl]-4-methylpentanoic acid] | 56 nM | 740 nM | 47 nM | 200 µM | 75 µM | 62 µM | – |
| CC(C)C[C@H](C(=O)O)[C@H](Cc1ccc(-c2ccc(N)nc2)cn1)c1nn[nH]n1 [Example 172, (2S)-2-[(1S)-2-(6′-amino-3,3′-bipyridin-6-yl)-1-(2H-tetrazol-5-yl)ethyl]-4-methylpentanoic acid] | 49 nM | 800 nM | 52 nM | 50 µM | 12.5 µM | 38 µM | – |
